The numbers were not newly measured in patent publication US10590413B2, “Chiral control” (WAVE LIFE SCIENCES LTD., priority 2012, dated 2020), which cites them from elsewhere.

The test system of data set [1] is NK Lytic Activity. The settings on record: cited from earlier work; for NK Lytic Activity (LU): human PBMC cultured with ODN 6 μg/ml for 24 hr, lysis of 51Cr-labeled K562 cells; for LU (NK lytic activity): human PBMC, ODN 6 μg/ml for 24 hr, lysis of Cr-labeled K562 cells, cells alone 0.01.
Data set [2] has as its system Murine IL-6 production and B cell activation. The conditions noted are these: cited from earlier work; for IL-6 (pg/ml) CH12.LX: CH12.LX cells; for IgM: unstimulated culture 547 ± 82 ng/ml; for SI (stimulation index, [3H] uridine uptake, fold increase from unstimulated control): cells stimulated with 20 μM CpG O-ODN; for SI (stimulation index, [3H] uridine uptake, fold increase from unstimulated control) / SI (stimulation index, [3H] uridine uptake): mean ± SD of triplicates; for SI (stimulation index, [3H] uridine uptake): fold increase from unstimulated control, 20 μM CpG O-ODN; for IL-6 (pg/ml) SPLENIC B CELL: splenic B cells.

Data set [3] relates to human PBMC. The settings on record: cited from earlier work.
The mark [4] stands for this setting: unstimulated control ≤10 pg/ml, US 6,239,116 Table 2.
Where [5] appears, read: ODN 12 μg/ml, 4 hr, 10% autologous serum, level above wells with no ODN, ELISA.
[6] abbreviates: ODN 12 μg/ml, 24 hr, 10% autologous serum, level above wells with no ODN, ELISA.

Like-named read-outs stand apart in the source and are kept apart here.

For “1780 (DNA ACCATGGACGGTCTGTTTCCCCTC; chemistry not given here) [Oligonucleotide 1780]”, in data set [1], the “NK Lytic Activity (LU)” value is given as 0.29 LU and the “LU (NK lytic activity)” value is on record as 0.29 LU.

In the case of “1834 (DNA TCTCCCAGCGGGCGCAT; chemistry not given here) [Oligonucleotide 1834]”, in data set [1], the “NK Lytic Activity (LU)” value was 0.00 LU and the “LU (NK lytic activity)” value is 0.00 LU.

For “1639 (DNA TCCATAACGTTCCTGATGCT; chemistry not given here) [Oligonucleotide 1639]”, in data set [2], the “IL-6 (pg/ml) CH12.LX” value is 1827 ± 83 pg/mL; the “SI (stimulation index, [3H] uridine uptake, fold increase from unstimulated control)” value is on record as 11.5 ± 0.4; the “SI (stimulation index, [3H] uridine uptake)” value is 11.5 ± 0.4; the “IL-6 (pg/ml) SPLENIC B CELL” value was 2012 ± 132 pg/mL. For the same substance, in data set [2] (setting [4]), the “IL-6 (pg/ml) CH12.LX” value was 1827 ± 83 pg/mL and the “IL-6 (pg/ml) SPLENIC B CELL” value is 2012 ± 132 pg/mL. Also, the “IgM” value in data set [2] (ELISA) was 9489 ± 103 ng/mL. Besides, the IgM in data set [2] (measured by ELISA) is 9439 ± 103 ng/mL. In addition, the TNF-α in data set [3] (setting [5]) is 220 pg/mL. Also, in data set [3] (setting [6]), the GM-CSF was 40 pg/mL, the IFN-γ is 15.6 pg/mL, the IL-6 is 625 pg/mL and the IL-12 was 220 pg/mL. Moreover, in data set [3], the GM-CSF was 40, the IFN-γ is 15.6, the IL-6 is 625 and the IL-12 is on record as 60. Moreover, in data set [3], the TNF-α was 220.

On to “1754 (DNA ACCATGGACGATCTGTTTCCCCTC; chemistry not given here) [Oligonucleotide 1754]”, for which, in data set [1], the “NK Lytic Activity (LU)” value is listed as 0.02 LU and the “LU (NK lytic activity)” value was 0.02 LU.

In the case of “1823 (DNA GCATGACGTTGAGCT; chemistry not given here) [Oligonucleotide 1823]”, in data set [1], the “NK Lytic Activity (LU)” value is listed as 0.08 LU and the “LU (NK lytic activity)” value is on record as 0.08 LU.

On to “1825 (DNA CTGCTGAGACTGGAG; chemistry not given here) [Oligonucleotide 1825]”, for which, in data set [1], the “NK Lytic Activity (LU)” value is 0.01 LU and the “LU (NK lytic activity)” value is on record as 0.01 LU.

Take “1842 (DNA TCGTCGCTGTCTCCGCTTCTT; chemistry not given here) [Oligonucleotide 1842]”: in data set [1], the “NK Lytic Activity (LU)” value was 0.06 LU and the “LU (NK lytic activity)” value is reported as 0.06 LU.

On to “1851 (DNA TCCTGACGTTCCTGACGTT; chemistry not given here) [Oligonucleotide 1851]”, for which, in data set [1], the “NK Lytic Activity (LU)” value is 2.32 LU and the “LU (NK lytic activity)” value is given as 2.32 LU.

For the substance “1779 (DNA ACCATGGACGTACTGTTTCCCCTC; chemistry not given here) [Oligonucleotide 1779]”, in data set [1], the “NK Lytic Activity (LU)” value is given as 0.02 LU and the “LU (NK lytic activity)” value is on record as 0.02 LU.

Regarding “1781 (DNA ACCATGGACGTTCTGTTTCCCCTC; chemistry not given here) [Oligonucleotide 1781]”, in data set [1], the “NK Lytic Activity (LU)” value is recorded as 0.38 LU and the “LU (NK lytic activity)” value is listed as 0.38 LU.

Take “1778 (DNA ACCATGGACGACCTGTTTCCCCTC; chemistry not given here) [Oligonucleotide 1778]”: in data set [1], the “NK Lytic Activity (LU)” value is given as 0.01 LU and the “LU (NK lytic activity)” value is given as 0.01 LU.

For the substance “1634 (DNA TCCATGTCGCTCCTGATGCT; chemistry not given here) [Oligonucleotide 1634]”, in data set [2], the “IL-6 (pg/ml) CH12.LX” value is 1049 ± 223 pg/mL; the “SI (stimulation index, [3H] uridine uptake, fold increase from unstimulated control)” value is recorded as 9.2 ± 0.9; the “SI (stimulation index, [3H] uridine uptake)” value is recorded as 9.2 ± 0.9; the “IL-6 (pg/ml) SPLENIC B CELL” value is 1671 ± 175 pg/mL. Moreover, in data set [2] (setting [4]), the “IL-6 (pg/ml) CH12.LX” value is 1049 ± 223 pg/mL and the “IL-6 (pg/ml) SPLENIC B CELL” value is 1671 ± 175 pg/mL. The IgM in data set [2] (measured by ELISA) was 6256 ± 261 ng/mL. Also, the TNF-α in data set [3] (setting [5]) was 400 pg/mL. In data set [3] (setting [6]), the GM-CSF is 85 pg/mL, the IFN-γ is 40 pg/mL, the IL-6 was 300 pg/mL and the IL-12 is 400 pg/mL. Further, in data set [3], the GM-CSF is 85, the IFN-γ is on record as 40, the IL-6 was 300 and the IL-12 is 200. For the same substance, the TNF-α in data set [3] is recorded as 400.

For “1776 (DNA ACCATGGACGAACTGTTTCCCCTC; chemistry not given here) [Oligonucleotide 1776]”, in data set [1], the “NK Lytic Activity (LU)” value is 0.03 LU and the “LU (NK lytic activity)” value is on record as 0.03 LU.

For “1824 (DNA CACGTTGAGGGGCAT; chemistry not given here) [Oligonucleotide 1824]”, in data set [1], the “NK Lytic Activity (LU)” value was 0.01 LU and the “LU (NK lytic activity)” value is 0.01 LU.

With “1777 (DNA ACCATGGACGAGCTGTTTCCCCTC; chemistry not given here) [Oligonucleotide 1777]”, in data set [1], the “NK Lytic Activity (LU)” value is given as 0.05 LU and the “LU (NK lytic activity)” value is 0.05 LU.

In the case of “1829 (DNA ATGACGTTCCTGACGTT; chemistry not given here) [Oligonucleotide 1829]”, in data set [1], the “NK Lytic Activity (LU)” value is 0.42 LU and the “LU (NK lytic activity)” value is given as 0.42 LU.

As to “1618 (DNA TCCATGACGTTCCTGATGCT; chemistry not given here) [Oligonucleotide 1618]”, in data set [2], the “IL-6 (pg/ml) CH12.LX” value was 2109 ± 291 pg/mL; the “SI (stimulation index, [3H] uridine uptake, fold increase from unstimulated control)” value is listed as 12.9 ± 0.7; the “SI (stimulation index, [3H] uridine uptake)” value is 12.9 ± 0.7; the “IL-6 (pg/ml) SPLENIC B CELL” value was 2596 ± 166 pg/mL. For the same substance, in data set [2] (setting [4]), the “IL-6 (pg/ml) CH12.LX” value is 2109 ± 291 pg/mL and the “IL-6 (pg/ml) SPLENIC B CELL” value was 2596 ± 166 pg/mL. For the same substance, the IgM in data set [2] (measured by ELISA) was 10425 ± 674 ng/mL. Besides, the TNF-α in data set [3] (setting [5]) was 60 pg/mL. In data set [3] (setting [6]), the GM-CSF was 15.6 pg/mL, the IFN-γ was 15.6 pg/mL, the IL-6 is 300 pg/mL and the IL-12 is 62 pg/mL. In data set [3], the GM-CSF was 15.6, the IFN-γ is on record as 15.6, the IL-6 was 300 and the IL-12 is listed as 62. Also, the TNF-α in data set [3] was 60.

In the case of “1828 (DNA TCAGCGTGCGCC; chemistry not given here) [Oligonucleotide 1828]”, in data set [1], the “NK Lytic Activity (LU)” value was 0.01 LU and the “LU (NK lytic activity)” value is reported as 0.01 LU.

Regarding “1836 (DNA TCTCCCAGCGCGCGCCAT; chemistry not given here) [Oligonucleotide 1836]”, in data set [1], the “NK Lytic Activity (LU)” value was 0.46 LU and the “LU (NK lytic activity)” value is listed as 0.46 LU.

On to “1761 (DNA TACCGCGTGCGACCCTCT; chemistry not given here) [Oligonucleotide 1761]”, for which, in data set [1], the “NK Lytic Activity (LU)” value is listed as 0.05 LU and the “LU (NK lytic activity)” value is listed as 0.05 LU.

For the substance “1708 (DNA TCCATCACGTGCCTGATGCT; chemistry not given here) [Oligonucleotide 1708]”, in data set [2], the “SI (stimulation index, [3H] uridine uptake, fold increase from unstimulated control)” value is 1.5 ± 0.1; the “SI (stimulation index, [3H] uridine uptake)” value is given as 1.5 ± 0.1; the “IL-6 (pg/ml) SPLENIC B CELL” value is 59 ± 3 pg/mL. The IgM in data set [2] (measured by ELISA) was 466 ± 109 ng/mL. Further, the “IL-6 (pg/ml) SPLENIC B CELL” value in data set [2] (setting [4]) is 59 ± 3 pg/mL. For the same substance, the TNF-α in data set [3] (setting [5]) was 10 pg/mL. In data set [3] (setting [6]), the IFN-γ is 17 pg/mL, the IL-6 was 270 pg/mL and the IL-12 was 10 pg/mL. Besides, in data set [3], the GM-CSF is on record as 0, the IFN-γ is 17, the IL-6 was 270 and the IL-12 was 0. For the same substance, in data set [3], the TNF-α was 10.

For the substance “1637 (DNA TCCATGCCGGTCCTGATGCT; chemistry not given here) [Oligonucleotide 1637]”, in data set [2], the “IL-6 (pg/ml) CH12.LX” value was 136 ± 27 pg/mL; the “SI (stimulation index, [3H] uridine uptake, fold increase from unstimulated control)” value is reported as 1.7 ± 0.2; the “SI (stimulation index, [3H] uridine uptake)” value was 1.7 ± 0.2; the “IL-6 (pg/ml) SPLENIC B CELL” value was 46 ± 6 pg/mL. Also, in data set [2] (setting [4]), the “IL-6 (pg/ml) CH12.LX” value is 136 ± 27 pg/mL and the “IL-6 (pg/ml) SPLENIC B CELL” value was 46 ± 6 pg/mL. In data set [2] (measured by ELISA), the IgM is 770 ± 72 ng/mL. Besides, the TNF-α in data set [3] (setting [5]) was 16 pg/mL. In addition, in data set [3] (setting [6]), the GM-CSF was 15.6 pg/mL, the IFN-γ is 7.8 pg/mL, the IL-6 was 550 pg/mL and the IL-12 is 16 pg/mL. For the same substance, in data set [3], the GM-CSF was 15.6, the IFN-γ is given as 7.8, the IL-6 is given as 550 and the IL-12 was 35. Further, the TNF-α in data set [3] was 16.

For “1614 (DNA TCCATGACGGTCCTGATGCT; chemistry not given here) [Oligonucleotide 1614]”, in data set [2], the “IL-6 (pg/ml) CH12.LX” value is 1533 ± 321 pg/mL; the “SI (stimulation index, [3H] uridine uptake, fold increase from unstimulated control)” value is given as 10.8 ± 0.6; the “SI (stimulation index, [3H] uridine uptake)” value is reported as 10.8 ± 0.6; the “IL-6 (pg/ml) SPLENIC B CELL” value was 1812 ± 103 pg/mL. In data set [2] (setting [4]), the “IL-6 (pg/ml) CH12.LX” value is 1533 ± 321 pg/mL and the “IL-6 (pg/ml) SPLENIC B CELL” value was 1812 ± 103 pg/mL. Moreover, in data set [2] (measured by ELISA), the IgM is 7558 ± 414 ng/mL. In addition, the TNF-α in data set [3] (setting [5]) was 31 pg/mL. Also, in data set [3] (setting [6]), the GM-CSF is 50 pg/mL, the IFN-γ is 0 pg/mL, the IL-6 was 550 pg/mL and the IL-12 was 31 pg/mL.
